Columns and labels:
Type in all cases: functional
[1] = Growth inhibition of human NCI-ADR-RES cells assessed as cell growth at 5X10'-6 M after 48 hrs by sulforhodamine B assay; conditions: read-out: Activity
[2] = tested on: HOP-62; experiment: Growth inhibition of human HOP62 cells assessed as cell growth at 3X10'-7 M after 48 hrs by sulforhodamine B assay; conditions: HOP-62, 48 h, read-out: Activity
[3] = tested on: T47D; experiment: Growth inhibition of human T47D cells assessed as cell growth at 3X10'-5 M after 48 hrs by sulforhodamine B assay; conditions: read-out: Activity
[4] = tested on: KM12; experiment: Growth inhibition of human KM12 cells assessed as cell growth at 3X10'-7 M after 48 hrs by sulforhodamine B assay; conditions: KM12, 48 h, read-out: Activity
[5] = tested on: NCI-H322M; experiment: Growth inhibition of human NCI-H322M cells assessed as cell growth at 3X10'-6 M after 48 hrs by sulforhodamine B assay; conditions: read-out: Activity
[6] = tested on: BT-549; experiment: Growth inhibition of human BT549 cells assessed as cell growth at 3X10'-5 M after 48 hrs by sulforhodamine B assay; conditions: BT-549, 48 h, read-out: Activity
[7] = tested on: T47D; experiment: Growth inhibition of human T47D cells assessed as cell growth at 3X10'-7 M after 48 hrs by sulforhodamine B assay; conditions: read-out: Activity
[8] = tested on: TK-10; experiment: Growth inhibition of human TK10 cells assessed as cell growth at 3X10'-6 M after 48 hrs by sulforhodamine B assay; conditions: TK-10, 48 h, read-out: Activity
[9] = tested on: RXF 393; experiment: Growth inhibition of human RXF393 cells assessed as cell growth at 3X10'-6 M after 48 hrs by sulforhodamine B assay; conditions: RXF 393, 48 h, read-out: Activity
[10] = tested on: OVCAR-8; experiment: Growth inhibition of human OVCAR8 cells assessed as cell growth at 3X10'-7 M after 48 hrs by sulforhodamine B assay; conditions: OVCAR-8, 48 h, read-out: Activity
[11] = tested on: ACHN; experiment: Growth inhibition of human ACHN cells assessed as cell growth at 3X10'-8 M after 48 hrs by sulforhodamine B assay; conditions: read-out: Activity
[12] = tested on: HCT-116; experiment: Growth inhibition of human HCT116 cells assessed as cell growth at 3X10'-5 M after 48 hrs by sulforhodamine B assay; conditions: HCT-116, 48 h, read-out: Activity
[13] = tested on: T47D; experiment: Growth inhibition of human T47D cells assessed as cell growth at 3X10'-8 M after 48 hrs by sulforhodamine B assay; conditions: read-out: Activity
[14] = tested on: RXF 393; experiment: Growth inhibition of human RXF393 cells assessed as cell growth at 3X10'-8 M after 48 hrs by sulforhodamine B assay; conditions: RXF 393, 48 h, read-out: Activity
[15] = tested on: SN12C; experiment: Growth inhibition of human SN12C cells assessed as cell growth at 3X10'-7 M after 48 hrs by sulforhodamine B assay; conditions: read-out: Activity
[16] = tested on: SF-539; experiment: Growth inhibition of human SF539 cells assessed as cell growth at 3X10'-9 M after 48 hrs by sulforhodamine B assay; conditions: SF-539, 48 h, read-out: Activity
[17] = tested on: RPMI-8226; experiment: Growth inhibition of human RPMI8226 cells assessed as cell growth at 3X10'-9 M after 48 hrs by sulforhodamine B assay; conditions: RPMI-8226, 48 h, read-out: Activity
[18] = Growth inhibition of human HCC2998 cells assessed as cell growth at 3X10'-5 M after 48 hrs by sulforhodamine B assay; conditions: HCC 2998, 48 h, read-out: Activity
[19] = tested on: DU-145; experiment: Growth inhibition of human DU145 cells assessed as cell growth at 3X10'-8 M after 48 hrs by sulforhodamine B assay; conditions: DU-145, 48 h, read-out: Activity
[20] = tested on: SF-268; experiment: Growth inhibition of human SF268 cells assessed as cell growth at 3X10'-6 M after 48 hrs by sulforhodamine B assay; conditions: SF-268, 48 h, read-out: Activity
[21] = Growth inhibition of human HCC2998 cells assessed as cell growth at 3X10'-8 M after 48 hrs by sulforhodamine B assay; conditions: HCC 2998, 48 h, read-out: Activity
[22] = tested on: SR; experiment: Growth inhibition of human SR cells assessed as cell growth at 3X10'-9 M after 48 hrs by sulforhodamine B assay; conditions: read-out: Activity
[23] = Growth inhibition of human HCC2998 cells assessed as cell growth at 3X10'-6 M after 48 hrs by sulforhodamine B assay; conditions: HCC 2998, 48 h, read-out: Activity
[24] = tested on: RXF 393; experiment: Growth inhibition of human RXF393 cells assessed as cell growth at 3X10'-9 M after 48 hrs by sulforhodamine B assay; conditions: RXF 393, 48 h, read-out: Activity
[25] = tested on: TK-10; experiment: Growth inhibition of human TK10 cells assessed as cell growth at 3X10'-9 M after 48 hrs by sulforhodamine B assay; conditions: TK-10, 48 h, read-out: Activity
[26] = tested on: MDA-MB-435; experiment: Growth inhibition of human MDA-MB-435 cells assessed as cell growth at 3X10'-6 M after 48 hrs by sulforhodamine B assay; conditions: MDA-MB-435, 48 h, read-out: Activity
[27] = tested on: SNB-19; experiment: Growth inhibition of human SNB19 cells assessed as cell growth at 3X10'-6 M after 48 hrs by sulforhodamine B assay; conditions: SNB-19, 48 h, read-out: Activity
[28] = Growth inhibition of human NCI-ADR-RES cells assessed as cell growth at 3X10'-6 M after 48 hrs by sulforhodamine B assay; conditions: read-out: Activity
[29] = tested on: COLO 205; experiment: Growth inhibition of human COLO205 cells assessed as cell growth at 3X10'-8 M after 48 hrs by sulforhodamine B assay; conditions: COLO 205, 48 h, read-out: Activity
[30] = tested on: T47D; experiment: Growth inhibition of human T47D cells assessed as cell growth at 3X10'-6 M after 48 hrs by sulforhodamine B assay; conditions: read-out: Activity
[31] = tested on: UACC-62; experiment: Growth inhibition of human UACC62 cells assessed as cell growth at 3X10'-8 M after 48 hrs by sulforhodamine B assay; conditions: UACC-62, 48 h, read-out: Activity
[32] = tested on: NCI-H226; experiment: Growth inhibition of human NCI-H226 cells assessed as cell growth at 3X10'-5 M after 48 hrs by sulforhodamine B assay; conditions: NCI-H226, 48 h, read-out: Activity
[33] = tested on: SNB-75; experiment: Growth inhibition of human SNB75 cells assessed as cell growth at 3X10'-8 M after 48 hrs by sulforhodamine B assay; conditions: SNB-75, 48 h, read-out: Activity
[34] = tested on: SF-268; experiment: Growth inhibition of human SF268 cells assessed as cell growth at 3X10'-8 M after 48 hrs by sulforhodamine B assay; conditions: SF-268, 48 h, read-out: Activity
[35] = tested on: CAKI-1; experiment: Growth inhibition of human CAKI-1 cells assessed as cell growth at 3X10'-6 M after 48 hrs by sulforhodamine B assay; conditions: CAKI-1, 48 h, read-out: Activity
[36] = tested on: IGROV-1; experiment: Growth inhibition of human IGROV1 cells assessed as cell growth at 3X10'-6 M after 48 hrs by sulforhodamine B assay; conditions: IGROV-1, 48 h, read-out: Activity
[37] = tested on: MCF7; experiment: Growth inhibition of human MCF7 cells assessed as cell growth at 3X10'-7 M after 48 hrs by sulforhodamine B assay; conditions: MCF7, 48 h, read-out: Activity
[38] = tested on: A549; experiment: Growth inhibition of human A549/ATCC cells assessed as cell growth at 3X10'-8 M after 48 hrs by sulforhodamine B assay; conditions: A549, 48 h, read-out: Activity

`COc1cc(-c2nn(-c3cccc(NC(=O)Nc4ccc(Cl)c(Cl)c4)c3)cc2-c2ccncc2)ccc1Cl` showed a growth at 5 µM [1] of -2%.
`COc1cc(-c2nn(-c3cccc(NC(=O)c4cccc(C(F)(F)F)c4)c3)cc2-c2ccncc2)ccc1Cl` gave a growth at 5 µM [1] of -21%.
Compound `O=C(Nc1cccc(-n2cc(-c3ccncc3)c(-c3ccc(Cl)c(O)c3)n2)c1)c1ccc(N2CCOCC2)c(C(F)(F)F)c1` has a growth at 5 µM [1] of 35%.
With `COc1cc(-c2nn(-c3cccc(NC(=O)c4ccc(Cl)c(C(F)(F)F)c4)c3)cc2-c2ccncc2)ccc1Cl` the growth at 0.3 µM [2] was 94%, the growth at 30 µM [3] was 18% and the growth at 0.3 µM [4] was 95%. For the same compound, the growth at 3 µM [5] was 73%, the growth at 30 µM [6] was 29% and the growth at 0.3 µM [7] was 92%. The growth at 3 µM [8] was 74%, the growth at 3 µM [9] was 36% and the growth at 0.3 µM [10] was 93%. It also gave a growth at 0.03 µM [11] of 100%, a growth at 30 µM [12] of 18% and a growth at 0.03 µM [13] of 96%. The growth at 0.03 µM [14] was 99%, the growth at 0.3 µM [15] was 93% and the growth at 0.003 µM [16] was 100%. It also gave a growth at 0.003 µM [17] of 97%, a growth at 30 µM [18] of 29% and a growth at 0.03 µM [19] of 100%. The growth at 3 µM [20] was 56%, the growth at 0.03 µM [21] was 95% and the growth at 0.003 µM [22] was 99%. For the same compound, the growth at 3 µM [23] was 63%, the growth at 0.003 µM [24] was 99% and the growth at 0.003 µM [25] was 90%. It also gave a growth at 3 µM [26] of -32%, a growth at 3 µM [27] of 66% and a growth at 3 µM [28] of 22%. For the same compound, the growth at 0.03 µM [29] was 97%, the growth at 3 µM [30] was 40% and the growth at 0.03 µM [31] was 99%. The growth at 30 µM [32] was 23%, the growth at 0.03 µM [33] was 89% and the growth at 0.03 µM [34] was 94%. For the same compound, the growth at 3 µM [35] was 44%, the growth at 3 µM [36] was 40% and the growth at 0.3 µM [37] was 89%. The growth at 0.03 µM [38] was 98%.
`O=C(Nc1cccc(-n2cc(-c3ccncc3)c(-c3ccc(Cl)c(O)c3)n2)c1)Nc1cc(C(F)(F)F)cc(C(F)(F)F)c1` gave a growth at 5 µM [1] of 1%.
In the case of `COc1cc(-c2nn(-c3cccc(NC(=O)Nc4cccc(C(F)(F)F)c4)c3)cc2-c2ccncc2)ccc1Cl`, the growth at 5 µM [1] is reported as -10%.
`O=C(Nc1cccc(-n2cc(-c3ccncc3)c(-c3ccc(Cl)c(O)c3)n2)c1)Nc1ccc(Cl)c(Cl)c1` gave a growth at 0.3 µM [2] of 111%, a growth at 30 µM [3] of -9% and a growth at 0.3 µM [4] of 90%. The growth at 3 µM [5] was 47%, the growth at 30 µM [6] was -12% and the growth at 0.3 µM [7] was 100%. For the same compound, the growth at 3 µM [8] was 31%, the growth at 3 µM [9] was 16% and the growth at 0.3 µM [10] was 95%. It also gave a growth at 0.03 µM [11] of 103%, a growth at 30 µM [12] of -39% and a growth at 0.03 µM [13] of 95%. It also gave a growth at 0.03 µM [14] of 100%, a growth at 0.3 µM [15] of 101% and a growth at 0.003 µM [16] of 92%. It also gave a growth at 0.003 µM [17] of 103%, a growth at 30 µM [18] of -27% and a growth at 0.03 µM [19] of 100%. For the same compound, the growth at 3 µM [20] was 23%, the growth at 0.03 µM [21] was 104% and the growth at 0.003 µM [22] was 91%. For the same compound, the growth at 3 µM [23] was 47%, the growth at 0.003 µM [24] was 96% and the growth at 0.003 µM [25] was 96%. For the same compound, the growth at 3 µM [26] was 14%, the growth at 3 µM [27] was 23% and the growth at 3 µM [28] was 46%. The growth at 0.03 µM [29] was 97%, the growth at 3 µM [30] was 26% and the growth at 0.03 µM [31] was 102%. For the same compound, the growth at 30 µM [32] was 12%, the growth at 0.03 µM [33] was 92% and the growth at 0.03 µM [34] was 92%. The growth at 3 µM [35] was 17%, the growth at 3 µM [36] was 29% and the growth at 0.3 µM [37] was 94%. The growth at 0.03 µM [38] was 100%.
